Consider 12 compounds from patent US9663473B2 (Actelion Pharmaceuticals Ltd, priority 2013, dated 2017).

In the assay the target is T1, recombinant human ALX receptor (Homo sapiens, UniProt P25090).
T1 construct: expressed in transfected cells; host or cells: HEK293 (HEK293-hALXR-Gα16)
T1 sequence (P25090 1-351): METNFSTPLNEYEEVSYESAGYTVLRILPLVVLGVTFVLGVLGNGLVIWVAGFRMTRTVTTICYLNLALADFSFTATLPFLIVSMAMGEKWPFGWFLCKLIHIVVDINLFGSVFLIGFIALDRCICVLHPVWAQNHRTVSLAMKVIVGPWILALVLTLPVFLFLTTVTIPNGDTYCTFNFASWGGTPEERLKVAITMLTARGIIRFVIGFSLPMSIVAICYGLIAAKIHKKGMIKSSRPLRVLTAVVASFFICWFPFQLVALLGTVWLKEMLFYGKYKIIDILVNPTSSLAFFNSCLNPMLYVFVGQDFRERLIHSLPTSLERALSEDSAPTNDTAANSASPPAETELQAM
In words: Intracellular calcium measurements (FLIPR), ALX receptor agonistic activity. It is filed as cell-based. The note with it: HEK293-hALXR-Gα16 cells, Fluo-4 calcium signal, normalized to WKYMVm 10 nM. The method, then:
The ALX receptor agonistic activity of the compounds of formula (I) is determined in accordance with the following experimental method.
Intracellular Calcium Measurements:
Cells expressing recombinant human ALX receptor and the G-protein Gα16 (HEK293-hALXR-Gα16) were grown to 80% confluency in Growing Medium (GM). Cells were detached from culture dishes with a cell dissociation buffer (Invitrogen, 13151-014), and collected by centrifugation at 1′000 rpm at rt for 5 min in Assay Buffer (AB) (equal parts of Hank's BSS (Gibco, 14065-049) and DMEM without Phenol Red (Gibco, 11880-028)). After 60 min incubation at 37° C. under 5% CO2 in AB supplemented with 1 μM Fluo-4 (AM) (Invitrogen, F14202) and 20 mM HEPES (Gibco, 15630-056), the cells were washed and resuspended in AB. They were then seeded onto 384-well FLIPR assay plates (Greiner, 781091) at 50′000 cells in 70 μl per well and sedimented by centrifugation at 1′000 rpm for 1 min. Stock solutions of test compounds were made up at a concentration of 10 mM in DMSO, and serially diluted in AB to concentrations required for activation dose response curves. WKYMVm (Phoenix Peptides) was used as a reference agonist. A FLIPR Tetra instrument (Molecular Devices) was operated according to the manufacturer's standard instructions, adding 4 μl of test compound dissolved at 10 mM in DMSO and diluted prior to the experiment in assay buffer to obtain the desired final concentration. Changes in fluorescence were monitored before and after the addition of test compounds at lex=488 nm and lem=540 nm. Emission peak values above base level after compounds addition were exported after base line subtraction. Values were normalized to high-level control (WKYMVm compound, 10 nM final concentration) after subtraction of the base line value (AB addition).
As to `COc1ccc(C[C@@H](NC(=O)N[C@H]2CCCC[C@@H]2CO)c2nc3ccccc3[nH]2)cc1` (relative stereo) [Example 32, 1-((R)-1-(1H-Benzo[d]imidazol-2-yl)-2-(4-methoxyphenyl)ethyl)-3-((1 S*,2S*)-2-(hydroxymethyl)cyclohexyl)urea], the EC50 is 13 nM.

For `COc1ccc(C[C@@H](NC(=O)NCc2ccccc2CN(C)C)c2nc3ccccc3[nH]2)cc1` [Example 199, (R)-1-(1-(1H-Benzo[d]imidazol-2-yl)-2-(4-methoxyphenyl)ethyl)-3-(2-((dimethylamino)methyl)benzyl)urea], the half-maximal effective concentration (EC50) was 81 nM.

Consider `COc1ccc(CC(NC(=O)N[C@H]2CC[C@H](O)CC2)c2nc3cc(F)ccc3[nH]2)c(F)c1F` (single isomer, unassigned; ent-1) [Example 375, 1-(2-(2,3-Difluoro-4-methoxyphenyl)-1-(5-fluoro-1H-benzo[d]imidazol-2-yl)ethyl)-3-(trans-4-hydroxycyclohexyl)urea (ent-1)], for which the EC50 is 0.4 nM.

`COc1ccc(C[C@@H](NC(=O)NCc2nccnc2OCC(F)(F)F)c2nc3ccccc3[nH]2)cc1` [Example 217, (R)-1-(1-(1H-Benzo[d]imidazol-2-yl)-2-(4-methoxyphenyl)ethyl)-3-((3-(2,2,2-trifluoroethoxy)pyrazin-2-yl)methyl)urea]: the EC50 stood at 19 nM.

`COc1ccc(C[C@@H](NC(=O)N[C@H](C)c2cccc(Cl)c2)c2nc3ccccc3[nH]2)cc1` [Example 324, 1-((R)-1-(1H-Benzo[d]imidazol-2-yl)-2-(4-methoxyphenyl)ethyl)-3-((R)-1-(3-chlorophenyl)ethyl)urea]: the EC50 is 712 nM.

Take `COc1ccc(C[C@@H](NC(=O)NC2(c3ccccc3Cl)CC2)c2nc3ccccc3[nH]2)cc1` [Example 389, (R)-1-(1-(1H-Benzo[d]imidazol-2-yl)-2-(4-methoxyphenyl)ethyl)-3-(1-(2-chlorophenyl)cyclopropyl)urea]: the EC50 was 1170 nM.

Consider `COc1ccc(C[C@@H](NC(=O)NC2(c3cccc(C)c3)CC2)c2nc3ccccc3[nH]2)cc1` [Example 354, (R)-1-(1-(1H-Benzo[d]imidazol-2-yl)-2-(4-methoxyphenyl)ethyl)-3-(1-(m-tolyl)cyclopropyl)urea], for which the EC50 turned out to be 144 nM.

For the compound `COc1ccc(C[C@@H](NC(=O)NC2CC(C)(C)NC(C)(C)C2)c2nc3ccccc3[nH]2)cc1` [Example 87, (R)-1-(1-(1H-Benzo[d]imidazol-2-yl)-2-(4-methoxyphenyl)ethyl)-3-(2,2,6,6-tetramethylpiperidin-4-yl)urea], the concentration giving a half-maximal response (EC50) stood at 14 nM.

With `COc1ccc(CC(NC(=O)N[C@H]2CC[C@](C)(O)CC2)c2nc3ccccc3[nH]2)cc1F` (relative stereo) [Example 226, 1-(1-(1H-Benzo[d]imidazol-2-yl)-2-(3-fluoro-4-methoxyphenyl)ethyl)-3-(trans-4-hydroxy-4-methylcyclohexyl)urea], the EC50 was 6.6 nM.

As to `CCOC(=O)[C@@H]1CCCC[C@@H]1NC(=O)N[C@H](Cc1ccc(OC)cc1)c1nc2ccccc2[nH]1` (relative stereo) [Example 28, (1R*,2S*)-Ethyl 2-(3-((R)-1-(1H-benzo[d]imidazol-2-yl)-2-(4-methoxyphenyl)ethyl)ureido)cyclohexanecarboxylate], the EC50 came out at 9.2 nM.

For the compound `COc1ccc(CC(NC(=O)N[C@H]2CC[C@H](O)CC2)c2nc3ccccc3[nH]2)c(C)c1` (relative stereo) [Example 396, 1-(1-(1H-Benzo[d]imidazol-2-yl)-2-(4-methoxy-2-methylphenyl)ethyl)-3-(trans-4-hydroxycyclohexyl)urea], the EC50 amounted to 26 nM.

With `CCC[C@@H](NC(=O)N[C@H](Cc1ccc(OC)cc1)c1nc2ccccc2[nH]1)c1ccccc1` [Example 335, 1-((R)-1-(1H-Benzo[d]imidazol-2-yl)-2-(4-methoxyphenyl)ethyl)-3-((R)-1-phenylbutyl)urea], the EC50 amounted to 372 nM.
